Experimental data as given in publication PMC9919591, “New Triazine Derivatives as Serotonin 5-HT6 Receptor Ligands” (Molecules, 2023).
Several values for one entry are separate records, joined by “and”; a condition that tells them apart may be missing. Identical values can stand only once. Counter-ions that a name gives are not always drawn.

Assays:
[1] = PAMPA, study b; cited from earlier work
human 5-HT6R = target: T1, human 5-HT6R (Homo sapiens, UniProt P50406); assay: Radioligand binding assay, 5-HT6R ([3H]-LSD); settings: for decrease in affinity for 5-HT6R compared to MST4: ratio of Ki values vs MST4 (Ki = 11 nM); for Ki: [3H]-LSD, HEK293 cells stably expressing human 5-HT6R, average of at least two independent experiments
T1 construct: expressed in transfected cells; host or cells: HEK293
T1 sequence (P50406 whole entry): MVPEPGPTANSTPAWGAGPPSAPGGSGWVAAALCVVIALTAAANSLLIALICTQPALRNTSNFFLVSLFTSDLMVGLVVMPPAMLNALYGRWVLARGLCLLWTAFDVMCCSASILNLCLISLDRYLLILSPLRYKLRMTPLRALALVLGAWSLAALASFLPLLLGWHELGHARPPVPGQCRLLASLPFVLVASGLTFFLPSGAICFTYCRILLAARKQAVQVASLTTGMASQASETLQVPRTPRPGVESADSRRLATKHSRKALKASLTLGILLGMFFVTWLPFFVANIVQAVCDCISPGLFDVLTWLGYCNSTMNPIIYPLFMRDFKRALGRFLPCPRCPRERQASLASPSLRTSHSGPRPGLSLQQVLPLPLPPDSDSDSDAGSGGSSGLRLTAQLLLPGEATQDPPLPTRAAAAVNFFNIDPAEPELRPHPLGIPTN
Method: The affinity of compounds (1–25) for 5-HT6R was evaluated in the radioligand binding assay in HEK293 cells stably expressing human 5-HT6R. [^3H]-LSD as a radioligand was used. […] All results are collected in Table 1, Table 2 and Table 3.
Radioligand binding assays were used to determine the affinity of the synthesized compounds for human serotonin 5-HT6R, 5-HT2AR, 5-HT7R and dopamine D2R, which were stably expressed in HEK293 cells or CHOk1 cells (5-HT2AR). This was done as described previously.

human 5-HT7R = target: T2, human 5-HT7R (Homo sapiens, UniProt P34969); assay: Radioligand binding assay, 5-HT7R ([3H]-5-CT); settings: HEK293 cells stably expressing human 5-HT7R
T2 construct: expressed in transfected cells; host or cells: HEK293
T2 sequence (P34969 whole entry): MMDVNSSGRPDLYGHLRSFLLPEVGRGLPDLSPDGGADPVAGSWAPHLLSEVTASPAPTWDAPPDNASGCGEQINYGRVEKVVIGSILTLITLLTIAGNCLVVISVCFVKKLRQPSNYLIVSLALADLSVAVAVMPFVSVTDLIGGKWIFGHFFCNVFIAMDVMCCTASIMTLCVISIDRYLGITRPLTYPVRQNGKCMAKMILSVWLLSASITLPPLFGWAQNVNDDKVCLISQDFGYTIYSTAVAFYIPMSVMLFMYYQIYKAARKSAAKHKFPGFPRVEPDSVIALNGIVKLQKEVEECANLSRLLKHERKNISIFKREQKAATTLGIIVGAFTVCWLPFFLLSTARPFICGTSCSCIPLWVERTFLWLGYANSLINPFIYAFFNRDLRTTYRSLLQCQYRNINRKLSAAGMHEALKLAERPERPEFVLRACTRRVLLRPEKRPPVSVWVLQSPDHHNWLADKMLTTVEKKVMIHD
Method: (§1) Affinity for serotonin 5-HT2A, 5-HT7 and dopamine D2 receptors (D2R) as protein off-targets was evaluated in the radioligand binding assays. In CHO-K1 cells, it was stably expressed human 5-HT2AR, whereas human 5-HT7R and D2R were stably expressed in HEK293 cells. […] A particularly weak affinity towards this receptor was shown through compounds of series 1 (compounds 1–7) and series 2 (compounds 8–13). […]. Radioligand binding assays were used to determine the affinity of the synthesized compounds for human serotonin 5-HT6R, 5-HT2AR, 5-HT7R and dopamine D2R, which were stably expressed in HEK293 cells or CHOk1 cells (5-HT2AR). This was done as described previously.

human 5-HT2AR = target: T3, human 5-HT2AR (Homo sapiens, UniProt P28223); assay: Radioligand binding assay, 5-HT2AR ([3H]-ketanserin); settings: CHO-K1 cells stably expressing human 5-HT2AR
T3 construct: expressed in transfected cells; host or cells: CHO-K1
T3 sequence (P28223 whole entry): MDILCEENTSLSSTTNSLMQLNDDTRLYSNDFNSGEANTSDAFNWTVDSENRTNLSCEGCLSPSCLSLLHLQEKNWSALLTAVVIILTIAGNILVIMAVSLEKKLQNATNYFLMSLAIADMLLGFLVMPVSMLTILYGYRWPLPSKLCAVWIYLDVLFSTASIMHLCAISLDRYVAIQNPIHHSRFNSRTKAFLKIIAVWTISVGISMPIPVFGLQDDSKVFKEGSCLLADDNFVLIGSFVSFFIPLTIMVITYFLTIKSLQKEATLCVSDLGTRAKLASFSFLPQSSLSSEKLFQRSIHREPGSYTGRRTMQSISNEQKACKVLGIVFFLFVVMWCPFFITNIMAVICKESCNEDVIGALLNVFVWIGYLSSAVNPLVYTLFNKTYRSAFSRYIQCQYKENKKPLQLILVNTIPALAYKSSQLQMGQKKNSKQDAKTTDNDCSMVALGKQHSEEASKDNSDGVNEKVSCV
Method: as §1

human D2R = target: T4, human D2R (Homo sapiens, UniProt P14416); assay: Radioligand binding assay, D2R ([3H]-raclopride); settings: HEK293 cells stably expressing human D2R
T4 construct: expressed in transfected cells; host or cells: HEK293
T4 sequence (P14416 whole entry): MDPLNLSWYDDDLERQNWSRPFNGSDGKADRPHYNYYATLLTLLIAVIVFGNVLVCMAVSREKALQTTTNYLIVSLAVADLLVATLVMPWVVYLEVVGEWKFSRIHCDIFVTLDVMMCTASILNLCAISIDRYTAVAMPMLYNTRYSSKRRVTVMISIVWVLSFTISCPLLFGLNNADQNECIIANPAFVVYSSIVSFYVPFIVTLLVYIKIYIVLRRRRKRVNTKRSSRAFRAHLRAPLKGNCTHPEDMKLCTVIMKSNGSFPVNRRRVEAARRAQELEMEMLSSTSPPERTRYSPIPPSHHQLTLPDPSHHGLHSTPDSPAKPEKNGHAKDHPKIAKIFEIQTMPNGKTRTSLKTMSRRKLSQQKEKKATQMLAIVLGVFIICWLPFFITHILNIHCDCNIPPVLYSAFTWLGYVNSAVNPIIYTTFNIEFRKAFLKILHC
Method: as §1

| Structure (SMILES) | melting point | Pe ± SD [1] | decrease in affinity for 5-HT6R compared to MST4 (human 5-HT6R) [fold] | Ki (human 5-HT6R) [nM] | Ki (human 5-HT7R) [µM] | Ki (human 5-HT2AR) [nM] | Ki (human D2R) [nM] |
| --- | --- | --- | --- | --- | --- | --- | --- |
| CN1CCN(c2nc(N)nc(COc3ccc(C(C)(C)C)cc3C(C)(C)C)n2)CC1 (as salt: hydrochloride) [Compound 13, 4-((2,4-(di-tert-Butyl)phenoxy)methyl)-6-(4-methylpiperazin-1-yl)-1,3,5-triazin-2-amine hydrochloride] | 284 to 287 °C | – | – | – | – | – | – |
| Cn1c(=O)c2c(ncn2C)n(C)c1=O [CFN, Caffeine] | – | 15.1 ± 0.4 ×10^−6 cm/s | – | – | – | – | – |
| Cc1cccc(OCc2nc(N)nc(N3CCN(C)CC3)n2)c1 [Compound 1] | – | – | 19 | – | – | – | – |
| CC(C)c1ccccc1OCc1nc(N)nc(N2CCN(C)CC2)n1 [Compound 2, 4-((2-Isopropylphenoxy)methyl)-6-(4-methylpiperazin-1-yl)-1,3,5-triazin-2-amine] | 140 to 142 °C | – | 2 | 21 | 16.3 | 1270 | – |
| CC(C)c1cccc(OCc2nc(N)nc(N3CCN(C)CC3)n2)c1 [Compound 4, 4-((3-Isopropylphenoxy)methyl)-6-(4-methylpiperazin-1-yl)-1,3,5-triazin-2-amine] | 103 to 105 °C | – | – | 41 | 5.73 | 2610 | 1790 |
| CN1CCN(c2nc(N)nc(COc3cccc(C(C)(C)C)c3)n2)CC1 [Compound 5, 4-((3-(tert-Butyl)phenoxy)methyl)-6-(4-methylpiperazin-1-yl)-1,3,5-triazin-2-amine] | 101.2 to 104.1 °C | – | – | 108 | 15.5 | 3110 | – |
| CC(C)c1ccc(OCc2nc(N)nc(N3CCN(C)CC3)n2)cc1 [Compound 6, 4-((4-Isopropylphenoxy)methyl)-6-(4-methylpiperazin-1-yl)-1,3,5-triazin-2-amine] | 133 to 135 °C | – | – | 416 | 10.1 | 248 | – |
| CN1CCN(c2nc(N)nc(COc3ccc(C(C)(C)C)cc3)n2)CC1 [Compound 7, 4-((4-(tert-Butyl)phenoxy)methyl)-6-(4-methylpiperazin-1-yl)-1,3,5-triazin-2-amine] | 104.4 °C (dec.) | – | – | 150 | 4.14 | 549 | 3130 |
| Cc1ccc(C(C)(C)C)c(OCc2nc(N)nc(N3CCN(C)CC3)n2)c1.Cl [Compound 8, 4-((2-(tert-Butyl)-5-methylphenoxy)methyl)-6-(4-methylpiperazin-1-yl)-1,3,5-triazin-2-amine hydrochloride] | 259 °C (dec.) | – | – | 6 | 15.1 | 1240 | 1570 |
| Cc1ccc(OCc2nc(N)nc(N3CCN(C)CC3)n2)c(C(C)(C)C)c1 [Compound 9, 4-((2-(tert-Butyl)-4-methylphenoxy)methyl)-6-(4-methylpiperazin-1-yl)-1,3,5-triazin-2-amine] | 146.5 °C (dec.) | – | – | 48 | 10.9 | 1930 | 2300 |
| Cc1cccc(C(C)(C)C)c1OCc1nc(N)nc(N2CCN(C)CC2)n1 [Compound 10, 4-((2-(tert-Butyl)-6-methylphenoxy)methyl)-6-(4-methylpiperazin-1-yl)-1,3,5-triazin-2-amine] | 177 to 179 °C (dec.) | – | – | 236 | 16.6 | – | – |
| CC(C)c1cccc(C(C)C)c1OCc1nc(N)nc(N2CCN(C)CC2)n1 [Compound 11, 4-((2,6-Diisopropylphenoxy)methyl)-6-(4-methylpiperazin-1-yl)-1,3,5-triazin-2-amine] | 160 to 163 °C | – | – | 825 | 33.6 | 7800 | – |
| CN1CCN(c2nc(N)nc(COc3c(C(C)(C)C)cccc3C(C)(C)C)n2)CC1 [Compound 12, 4-((2,6-(di-tert-Butyl)phenoxy)methyl)-6-(4-methylpiperazin-1-yl)-1,3,5-triazin-2-amine hydrochloride] | – | – | – | 379 | 8.09 | – | – |
| CN1CCN(c2nc(N)nc(COc3ccc(C(C)(C)C)cc3C(C)(C)C)n2)CC1 [Compound 13, 4-((2,4-(di-tert-Butyl)phenoxy)methyl)-6-(4-methylpiperazin-1-yl)-1,3,5-triazin-2-amine hydrochloride] | – | – | – | 162 | 8.47 | 760 | 2740 |
| Cc1ccc(C(C)C)c(OCCCc2nc(N)nc(N3CCN(C)CC3)n2)c1 [Compound 14, 4-(3-(2-Isopropyl-5-methylphenoxy)propyl)-6-(4-methylpiperazin-1-yl)-1,3,5-triazin-2-amine] | 77 °C | – | – | 412 | 6.66 | 1690 | 1590 |
| CC(C)c1ccccc1OCCCc1nc(N)nc(N2CCN(C)CC2)n1.Cl [Compound 15, 4-(3-(2-Isopropylphenoxy)propyl)-6-(4-methylpiperazin-1-yl)-1,3,5-triazin-2-amine hydrochloride] | 235 °C | – | – | 221 | 8.87 | 489 | 2430 |
| CC(C)c1ccc(OCCCc2nc(N)nc(N3CCN(C)CC3)n2)cc1 [Compound 16, 4-(3-(4-Isopropylphenoxy)propyl)-6-(4-methylpiperazin-1-yl)-1,3,5-triazin-2-amine] | 92 °C | – | – | 1110 | 5.12 | 1170 | 704 |
| Cc1cccc(OCCCc2nc(N)nc(N3CCN(C)CC3)n2)c1 [Compound 17, 4-(4-Methylpiperazin-1-yl)-6-(3-(m-tolyloxy)propyl)-1,3,5-triazin-2-amine] | 114 to 117 °C | – | – | 1460 | 30.2 | 3850 | 2600 |
| Cc1ccccc1OCCCc1nc(N)nc(N2CCN(C)CC2)n1 [Compound 18, 4-(4-Methylpiperazin-1-yl)-6-(3-(o-tolyloxy)propyl)-1,3,5-triazin-2-amine] | 83 °C | – | – | 574 | 14.9 | 1440 | 1760 |
| Cc1ccc(C(C)C)c(OCCCCc2nc(N)nc(N3CCN(C)CC3)n2)c1.Cl [Compound 19, 4-(4-(2-Isopropyl-5-methylphenoxy)butyl)-6-(4-methylpiperazin-1-yl)-1,3,5-triazin-2-amine hydrochloride] | 239 °C | – | – | 142 | 0.638 | 687 | 3200 |
| CC(C)c1ccccc1OCCCCc1nc(N)nc(N2CCN(C)CC2)n1 [Compound 20, 4-(4-(2-Isopropylphenoxy)butyl)-6-(4-methylpiperazin-1-yl)-1,3,5-triazin-2-amine] | 59 °C | – | – | 43 | 0.665 | 677 | 5690 |
| Cc1cccc(OCCCCc2nc(N)nc(N3CCN(C)CC3)n2)c1 [Compound 21, 4-(4-Methylpiperazin-1-yl)-6-(4-(m-tolyloxy)butyl)-1,3,5-triazin-2-amine] | 99 to 101 °C | – | – | 559 | 6.25 | 952 | 612 |
| Cc1ccc(C(C)C)c(OCCCCCc2nc(N)nc(N3CCN(C)CC3)n2)c1 [Compound 22, 4-(5-(2-Isopropyl-5-methylphenoxy)pentyl)-6-(4-methylpiperazin-1-yl)-1,3,5-triazin-2-amine] | 75 °C (dec.) | – | – | 282 | 0.771 | 709 | 837 |
| CC(C)c1ccccc1OCCCCCc1nc(N)nc(N2CCN(C)CC2)n1 [Compound 23, 4-(5-(2-Isopropylphenoxy)pentyl)-6-(4-methylpiperazin-1-yl)-1,3,5-triazin-2-amine] | 63 to 65 °C | – | – | 189 | 3.43 | 597 | 196 |
| Cc1cccc(OCCCCCc2nc(N)nc(N3CCN(C)CC3)n2)c1 [Compound 24, 4-(4-Methylpiperazin-1-yl)-6-(5-(m-tolyloxy)pentyl) 1,3,5-triazin-2-amine] | 83 to 85 °C | – | – | 644 | 1.89 | 854 | 481 |
| Cc1ccc(C(C)C)c(OCCCCCCc2nc(N)nc(N3CCN(C)CC3)n2)c1 [Compound 25, 4-(6-(2-Isopropyl-5-methylphenoxy)hexyl)-6-(4-methylpiperazin-1-yl)-1,3,5-triazin-2-amine] | 59 °C (dec.) | – | – | 78 | 1.03 | 364 | 149 |
| Cc1ccc(C(C)C)c(OCc2nc(N)nc(N3CCN(C)CC3)n2)c1 [MST4, 4-((2-isopropyl-5-methylphenoxy)methyl)-6-(4-methylpiperazin-1-yl)-1,3,5-triazin-2-amine] | – | 12.3 ×10^−6 cm/s and 12.3 ± 2.0 ×10^−6 cm/s | – | – | – | – | – |
